From ChEMBL document CHEMBL3885881, “DrugMatrix”

Species on record: Rattus norvegicus
Experiment: DrugMatrix - Regimen: Daily Repeat
Assay type: toxicity, organism-based, Sprague-Dawley
Design: regimen Daily Repeat, gender Male, age 6-8 weeks
Conditions: in vivo, po, 1200 mg/kg, route oral GAVAGE, dose level High, vehicle .5 % CMC; for ABSOLUTE BASOPHIL / ABSOLUTE EOSINOPHIL / ABSOLUTE LYMPHOCYTE / ABSOLUTE MONOCYTE / ABSOLUTE SEGMENTED NEUTROPHIL / BASOPHIL / EOSINOPHIL / ERYTHROCYTE COUNT / HEMATOCRIT / HEMOGLOBIN / LEUKOCYTE COUNT / LYMPHOCYTE / MEAN CORPUSCULAR HEMOGLOBIN / MEAN CORPUSCULAR HEMOGLOBIN CONCENTRATION / MEAN CORPUSCULAR VOLUME / MONOCYTE / NEUTROPHIL / NUCLEATED RED BLOOD CELLS / PLATELET COUNT: tissue Blood
[1] = 72 h, tissue Plasma, time 3 day
[2] = 120 h, tissue Plasma, time 5 day

For Nc1ccc(Cl)cc1[N+](=O)[O-] [4-CHLORO-2-NITROANILINE], the “ABSOLUTE BASOPHIL” value (72 h, time 3 day) was 0 CELLS/uL, the “ABSOLUTE EOSINOPHIL” value (72 h, time 3 day) was 170.33 CELLS/uL and the “ABSOLUTE LYMPHOCYTE” value (72 h, time 3 day) was 8812.67 CELLS/uL. The “ABSOLUTE MONOCYTE” value (72 h, time 3 day) was 210.67 CELLS/uL, the “ABSOLUTE SEGMENTED NEUTROPHIL” value (72 h, time 3 day) was 673 CELLS/uL and the BASOPHIL (72 h, time 3 day) was 0%. For the same molecule, the EOSINOPHIL (72 h, time 3 day) was 1.67%, the “ERYTHROCYTE COUNT” value (72 h, time 3 day) was 6.64 x10E6/uL and the HEMATOCRIT (72 h, time 3 day) was 39.73%. For the same molecule, the HEMOGLOBIN (72 h, time 3 day) was 14.83 G/DL, the “LEUKOCYTE COUNT” value (72 h, time 3 day) was 9.87 x10E3/uL and the LYMPHOCYTE (72 h, time 3 day) was 89%. For the same molecule, the “MEAN CORPUSCULAR HEMOGLOBIN” value (72 h, time 3 day) was 22.33 pg, the “MEAN CORPUSCULAR HEMOGLOBIN CONCENTRATION” value (72 h, time 3 day) was 37.37 G/DL and the “MEAN CORPUSCULAR VOLUME” value (72 h, time 3 day) was 59.8 fL. The MONOCYTE (72 h, time 3 day) was 2.33%, the NEUTROPHIL (72 h, time 3 day) was 7% and the “NUCLEATED RED BLOOD CELLS” value (72 h, time 3 day) was 0.33 /100WBC. For the same molecule, the “PLATELET COUNT” value (72 h, time 3 day) was 873.33 x10E3/uL, the “ALANINE AMINOTRANSFERASE” value [1] was 82.67 u/L and the ALBUMIN [1] was 4.53 G/DL. For the same molecule, the “ALKALINE PHOSPHATASE” value [1] was 464.33 u/L, the “ASPARTATE AMINOTRANSFERASE” value [1] was 89.67 u/L and the “BLOOD UREA NITROGEN” value [1] was 17 mg/dL. For the same molecule, the “CARBON DIOXIDE” value [1] was 36.67 mmol/L, the CHLORIDE [1] was 100 MEQ/L and the CHOLESTEROL [1] was 91.67 mg/dL. For the same molecule, the CREATININE [1] was 0.24 mg/dL, the GLUCOSE [1] was 126.33 mg/dL and the “LACTATE DEHYDROGENASE” value [1] was 78.67 u/L. For the same molecule, the LIPASE [1] was 10 u/L, the PHOSPHORUS [1] was 11.83 mg/dL and the POTASSIUM [1] was 6.36 MEQ/L. For the same molecule, the SODIUM [1] was 147.57 MEQ/L, the “TOTAL BILIRUBIN” value [1] was 0.23 mg/dL and the “TOTAL PROTEIN” value [1] was 6.73 G/DL. The “URIC ACID” value [1] was 1.37 mg/dL, the “ABSOLUTE BASOPHIL” value (120 h, time 5 day) was 0 CELLS/uL and the “ABSOLUTE EOSINOPHIL” value (120 h, time 5 day) was 100.67 CELLS/uL. The “ABSOLUTE LYMPHOCYTE” value (120 h, time 5 day) was 9384 CELLS/uL, the “ABSOLUTE MONOCYTE” value (120 h, time 5 day) was 183 CELLS/uL and the “ABSOLUTE SEGMENTED NEUTROPHIL” value (120 h, time 5 day) was 1099 CELLS/uL. For the same molecule, the BASOPHIL (120 h, time 5 day) was 0%, the EOSINOPHIL (120 h, time 5 day) was 1% and the “ERYTHROCYTE COUNT” value (120 h, time 5 day) was 6.3 x10E6/uL. For the same molecule, the HEMATOCRIT (120 h, time 5 day) was 37.27%, the HEMOGLOBIN (120 h, time 5 day) was 13.47 G/DL and the “LEUKOCYTE COUNT” value (120 h, time 5 day) was 10.77 x10E3/uL. The LYMPHOCYTE (120 h, time 5 day) was 87%, the “MEAN CORPUSCULAR HEMOGLOBIN” value (120 h, time 5 day) was 21.43 pg and the “MEAN CORPUSCULAR HEMOGLOBIN CONCENTRATION” value (120 h, time 5 day) was 36.17 G/DL. For the same molecule, the “MEAN CORPUSCULAR VOLUME” value (120 h, time 5 day) was 59.17 fL, the MONOCYTE (120 h, time 5 day) was 1.67% and the NEUTROPHIL (120 h, time 5 day) was 10.33%. For the same molecule, the “NUCLEATED RED BLOOD CELLS” value (120 h, time 5 day) was 0 /100WBC, the “PLATELET COUNT” value (120 h, time 5 day) was 947 x10E3/uL and the “ALANINE AMINOTRANSFERASE” value [2] was 49 u/L. The ALBUMIN [2] was 4.1 G/DL, the “ALKALINE PHOSPHATASE” value [2] was 387 u/L and the “ASPARTATE AMINOTRANSFERASE” value [2] was 69 u/L. The “BLOOD UREA NITROGEN” value [2] was 12.67 mg/dL, the “CARBON DIOXIDE” value [2] was 31 mmol/L and the CHLORIDE [2] was 102.67 MEQ/L. For the same molecule, the CHOLESTEROL [2] was 97.33 mg/dL, the CREATININE [2] was 0.18 mg/dL and the GLUCOSE [2] was 126.33 mg/dL. The “LACTATE DEHYDROGENASE” value [2] was 87 u/L, the LIPASE [2] was 10 u/L and the PHOSPHORUS [2] was 12.2 mg/dL. The POTASSIUM [2] was 7.1 MEQ/L, the SODIUM [2] was 147.03 MEQ/L and the “TOTAL BILIRUBIN” value [2] was 0.23 mg/dL. For the same molecule, the “TOTAL PROTEIN” value [2] was 6.2 G/DL.
